# Reference: patent publication US20240058347A1, “DOSAGES FOR HDAC TREATMENT WITH REDUCED SIDE EFFECTS” (VIRACTA THERAPEUTICS, INC., priority 2019, published 2024)
# Experiments:
# Format in all cases: biochemical
# HDAC7 = target: T1, HDAC7 (Homo sapiens, UniProt Q8WUI4); assay: in vitro HDAC inhibition assay (fluorescence), HDAC7; conditions: HDAC7
# T1 sequence (Q8WUI4 1-952): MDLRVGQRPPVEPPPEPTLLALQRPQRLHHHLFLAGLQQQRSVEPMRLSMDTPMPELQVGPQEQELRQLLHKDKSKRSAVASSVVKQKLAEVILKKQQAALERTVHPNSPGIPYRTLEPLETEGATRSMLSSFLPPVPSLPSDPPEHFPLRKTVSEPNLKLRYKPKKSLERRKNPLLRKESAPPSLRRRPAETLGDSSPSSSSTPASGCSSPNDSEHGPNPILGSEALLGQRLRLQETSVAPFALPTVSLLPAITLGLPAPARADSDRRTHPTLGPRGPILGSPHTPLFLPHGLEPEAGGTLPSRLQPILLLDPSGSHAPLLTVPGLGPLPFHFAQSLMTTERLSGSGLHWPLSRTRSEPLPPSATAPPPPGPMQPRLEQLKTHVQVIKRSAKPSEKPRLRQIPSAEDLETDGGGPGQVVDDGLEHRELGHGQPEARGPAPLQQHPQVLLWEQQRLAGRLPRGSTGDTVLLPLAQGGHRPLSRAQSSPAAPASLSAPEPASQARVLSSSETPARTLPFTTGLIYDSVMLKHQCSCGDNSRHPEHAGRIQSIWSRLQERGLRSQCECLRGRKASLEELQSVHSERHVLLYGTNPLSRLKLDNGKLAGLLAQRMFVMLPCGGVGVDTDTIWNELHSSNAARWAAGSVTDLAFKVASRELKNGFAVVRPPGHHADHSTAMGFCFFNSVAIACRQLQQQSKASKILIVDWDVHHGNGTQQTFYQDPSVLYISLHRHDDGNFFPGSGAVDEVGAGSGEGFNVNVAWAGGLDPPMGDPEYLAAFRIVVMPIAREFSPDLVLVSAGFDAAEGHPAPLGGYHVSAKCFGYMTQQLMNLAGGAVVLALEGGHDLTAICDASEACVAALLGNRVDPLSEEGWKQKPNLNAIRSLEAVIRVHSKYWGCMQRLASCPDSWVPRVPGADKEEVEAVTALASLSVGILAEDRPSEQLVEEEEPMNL
# Description: (§1) Briefly, all of the compounds are dissolved in DMSO. A series of dilutions of the compounds were prepared with 10% DMSO in HDAC assay buffer and 5 μl of the dilution was added to a 50 μl reaction so that the final concentration of DMSO is 1% in all of reactions. The compounds were pre-incubated in duplicate at RT for 1 hour in a mixture containing HDAC assay buffer, 5 μg BSA, HDAC enzyme (see Table 7) and a the particular HDACi. After 1 hour, the enzymatic reactions were initiated by the addition of HDAC substrate (BPS Bioscience) to a final concentration of 10 μM or 2 μM. The enzymatic reaction proceeded for 30 minutes at 37° C.
# (§2) HDAC activity assays were performed in duplicates at each concentration. The fluorescent intensity data were analyzed using the computer software, Graphpad Prism. In the absence of the compound, the fluorescent intensity (Ft) in each data set was defined as 100% activity. In the absence of HDAC, the fluorescent intensity (Fb) in each data set was defined as 0% activity. The percent activity in the presence of each compound was calculated according to the following equation: % activity=(F−Fb)/(Ft−Fb), where F=the fluorescent intensity in the presence of the compound. […]
# HDAC5 = HDAC5 (Homo sapiens, UniProt Q9UQL6); assay: in vitro HDAC inhibition assay (fluorescence), HDAC5
# Description: as §1, §2
# HDAC11 = target: T2, HDAC11 (Homo sapiens, UniProt Q96DB2); assay: in vitro HDAC inhibition assay (fluorescence), HDAC11; conditions: HDAC11
# T2 sequence (Q96DB2 1-347): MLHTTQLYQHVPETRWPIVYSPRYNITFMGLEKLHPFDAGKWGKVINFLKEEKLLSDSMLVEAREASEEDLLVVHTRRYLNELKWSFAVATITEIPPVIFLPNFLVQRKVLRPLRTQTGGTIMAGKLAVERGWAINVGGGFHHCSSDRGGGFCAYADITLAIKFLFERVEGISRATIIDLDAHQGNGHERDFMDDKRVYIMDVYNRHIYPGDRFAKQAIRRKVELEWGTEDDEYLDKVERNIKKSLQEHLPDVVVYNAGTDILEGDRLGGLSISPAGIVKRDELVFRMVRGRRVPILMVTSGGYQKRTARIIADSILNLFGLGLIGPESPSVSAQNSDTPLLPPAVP
# Description: as §1, §2
# HDAC9 = HDAC9 (Homo sapiens, UniProt Q9UKV0); assay: in vitro HDAC inhibition assay (fluorescence), HDAC9; conditions: HDAC9
# Description: as §1, §2
# HDAC1 = HDAC1 (Homo sapiens, UniProt Q13547); assay: in vitro HDAC inhibition assay (fluorescence), HDAC1
# Description: as §1, §2
# HDAC4 = HDAC4 (Homo sapiens, UniProt P56524); assay: in vitro HDAC inhibition assay (fluorescence), HDAC4; conditions: HDAC4
# Description: as §1, §2
# Chain of HDAC1 (Q13547 whole entry): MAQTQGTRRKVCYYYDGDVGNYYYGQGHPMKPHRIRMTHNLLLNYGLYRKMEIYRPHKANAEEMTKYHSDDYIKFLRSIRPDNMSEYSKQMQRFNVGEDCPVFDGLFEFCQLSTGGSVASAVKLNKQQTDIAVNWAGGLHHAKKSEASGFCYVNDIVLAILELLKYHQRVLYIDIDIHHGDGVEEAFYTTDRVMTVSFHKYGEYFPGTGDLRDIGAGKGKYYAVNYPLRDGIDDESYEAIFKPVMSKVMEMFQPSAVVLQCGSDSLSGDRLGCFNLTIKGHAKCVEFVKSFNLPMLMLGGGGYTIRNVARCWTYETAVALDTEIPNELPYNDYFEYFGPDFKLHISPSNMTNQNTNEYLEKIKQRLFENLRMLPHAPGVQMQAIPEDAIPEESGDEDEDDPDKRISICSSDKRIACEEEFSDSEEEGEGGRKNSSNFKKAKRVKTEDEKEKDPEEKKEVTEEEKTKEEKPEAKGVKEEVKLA
# Chain of HDAC5 (Q9UQL6 whole entry): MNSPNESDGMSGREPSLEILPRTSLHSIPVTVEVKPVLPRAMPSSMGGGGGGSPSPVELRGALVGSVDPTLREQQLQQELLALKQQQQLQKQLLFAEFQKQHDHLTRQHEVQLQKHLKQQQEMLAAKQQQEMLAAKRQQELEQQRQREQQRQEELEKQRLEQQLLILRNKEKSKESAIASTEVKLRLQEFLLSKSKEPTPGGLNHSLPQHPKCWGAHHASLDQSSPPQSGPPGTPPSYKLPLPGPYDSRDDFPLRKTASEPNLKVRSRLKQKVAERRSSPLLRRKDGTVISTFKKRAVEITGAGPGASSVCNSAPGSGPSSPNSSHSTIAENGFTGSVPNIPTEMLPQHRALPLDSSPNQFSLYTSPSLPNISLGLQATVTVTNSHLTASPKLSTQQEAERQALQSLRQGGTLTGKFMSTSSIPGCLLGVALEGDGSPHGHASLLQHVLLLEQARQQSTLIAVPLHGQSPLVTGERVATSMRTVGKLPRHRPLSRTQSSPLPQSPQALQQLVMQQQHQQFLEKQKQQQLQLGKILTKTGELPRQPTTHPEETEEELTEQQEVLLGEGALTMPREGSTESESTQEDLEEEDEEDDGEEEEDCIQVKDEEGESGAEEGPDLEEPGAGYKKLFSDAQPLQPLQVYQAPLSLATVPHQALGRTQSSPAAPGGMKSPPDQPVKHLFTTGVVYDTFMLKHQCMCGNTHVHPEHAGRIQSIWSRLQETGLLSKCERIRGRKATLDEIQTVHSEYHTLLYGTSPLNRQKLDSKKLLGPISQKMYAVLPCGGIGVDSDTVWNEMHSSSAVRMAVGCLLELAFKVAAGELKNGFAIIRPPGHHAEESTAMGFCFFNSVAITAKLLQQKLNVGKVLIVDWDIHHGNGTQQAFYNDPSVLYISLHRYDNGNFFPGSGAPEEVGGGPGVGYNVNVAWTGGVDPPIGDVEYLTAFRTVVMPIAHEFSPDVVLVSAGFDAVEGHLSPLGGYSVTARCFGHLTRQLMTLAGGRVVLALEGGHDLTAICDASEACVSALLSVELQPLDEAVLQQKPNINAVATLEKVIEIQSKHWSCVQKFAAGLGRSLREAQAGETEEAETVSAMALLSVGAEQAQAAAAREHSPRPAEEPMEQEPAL
# Chain of HDAC9 (Q9UKV0 whole entry): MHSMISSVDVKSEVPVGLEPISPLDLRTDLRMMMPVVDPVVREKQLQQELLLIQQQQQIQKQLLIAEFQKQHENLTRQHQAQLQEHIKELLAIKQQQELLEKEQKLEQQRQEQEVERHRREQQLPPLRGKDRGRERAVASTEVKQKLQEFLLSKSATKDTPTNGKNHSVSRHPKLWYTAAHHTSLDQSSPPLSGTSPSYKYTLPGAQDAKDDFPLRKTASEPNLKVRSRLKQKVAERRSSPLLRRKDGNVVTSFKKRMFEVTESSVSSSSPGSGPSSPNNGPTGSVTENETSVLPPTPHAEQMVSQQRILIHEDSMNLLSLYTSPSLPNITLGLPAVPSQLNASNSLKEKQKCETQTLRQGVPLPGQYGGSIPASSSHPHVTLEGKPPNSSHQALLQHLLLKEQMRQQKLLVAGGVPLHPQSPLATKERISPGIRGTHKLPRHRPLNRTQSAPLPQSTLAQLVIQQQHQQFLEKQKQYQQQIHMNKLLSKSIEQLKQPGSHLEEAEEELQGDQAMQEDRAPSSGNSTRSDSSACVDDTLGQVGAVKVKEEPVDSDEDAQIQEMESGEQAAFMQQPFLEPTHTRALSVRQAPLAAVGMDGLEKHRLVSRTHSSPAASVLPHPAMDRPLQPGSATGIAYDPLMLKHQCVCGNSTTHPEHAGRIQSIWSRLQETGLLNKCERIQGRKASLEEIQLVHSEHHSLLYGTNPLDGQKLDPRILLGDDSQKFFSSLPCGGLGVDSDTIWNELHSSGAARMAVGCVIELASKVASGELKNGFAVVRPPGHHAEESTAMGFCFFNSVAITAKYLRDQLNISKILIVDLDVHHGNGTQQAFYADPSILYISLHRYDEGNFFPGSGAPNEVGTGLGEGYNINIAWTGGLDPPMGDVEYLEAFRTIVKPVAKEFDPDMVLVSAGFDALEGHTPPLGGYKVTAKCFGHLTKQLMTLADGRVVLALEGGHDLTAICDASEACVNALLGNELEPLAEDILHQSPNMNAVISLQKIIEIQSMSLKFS
# Chain of HDAC4 (P56524 whole entry): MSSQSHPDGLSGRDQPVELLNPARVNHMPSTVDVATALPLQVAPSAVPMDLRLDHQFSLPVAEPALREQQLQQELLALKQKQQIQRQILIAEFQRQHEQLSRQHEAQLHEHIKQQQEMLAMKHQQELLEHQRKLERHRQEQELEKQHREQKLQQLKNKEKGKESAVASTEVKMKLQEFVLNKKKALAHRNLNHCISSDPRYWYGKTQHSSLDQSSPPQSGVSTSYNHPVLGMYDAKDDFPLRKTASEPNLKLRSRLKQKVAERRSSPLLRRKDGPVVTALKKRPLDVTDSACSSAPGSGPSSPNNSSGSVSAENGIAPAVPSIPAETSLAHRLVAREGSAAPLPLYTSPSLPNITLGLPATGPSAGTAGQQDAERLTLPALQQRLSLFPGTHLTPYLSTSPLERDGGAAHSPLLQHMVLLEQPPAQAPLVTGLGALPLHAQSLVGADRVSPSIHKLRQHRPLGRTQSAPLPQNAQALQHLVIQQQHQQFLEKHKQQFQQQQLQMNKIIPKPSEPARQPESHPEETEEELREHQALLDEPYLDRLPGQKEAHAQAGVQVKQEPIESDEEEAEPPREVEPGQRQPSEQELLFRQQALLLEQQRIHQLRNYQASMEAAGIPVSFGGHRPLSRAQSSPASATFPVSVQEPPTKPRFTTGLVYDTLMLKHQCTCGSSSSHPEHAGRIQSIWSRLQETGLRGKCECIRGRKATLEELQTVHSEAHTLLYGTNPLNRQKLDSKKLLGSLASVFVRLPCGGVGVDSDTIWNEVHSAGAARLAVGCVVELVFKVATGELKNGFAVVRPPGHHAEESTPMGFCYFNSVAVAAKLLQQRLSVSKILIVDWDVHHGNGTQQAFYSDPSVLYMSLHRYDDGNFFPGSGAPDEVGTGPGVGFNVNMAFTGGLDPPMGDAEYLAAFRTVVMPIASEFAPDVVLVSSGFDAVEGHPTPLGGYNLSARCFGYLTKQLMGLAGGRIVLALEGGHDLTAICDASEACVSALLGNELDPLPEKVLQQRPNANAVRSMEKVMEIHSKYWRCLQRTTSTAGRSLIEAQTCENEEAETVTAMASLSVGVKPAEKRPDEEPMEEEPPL
smiles,measurement,setting,value
"O=C(NO)c1cnc(N2CC3C(C2)C3NCc2ccc3cc(F)ccc3n2)nc1 (stereo not drawn) [Nstat, 2-(6-{[(6-Fluoroquinolin-2-yl)methyl]amino}-3-azabicyclo[3.1.0]hex-3-yl)-N-hydroxypyrimidine-5-carboxamide]",IC50,HDAC7,1600 nM
same,IC50,HDAC5,390 nM
same,IC50,HDAC11,2800 nM
same,IC50,HDAC9,440 nM
same,IC50,HDAC1,3.6 nM
same,IC50,HDAC4,1000 nM
